# Patent US20230301933A1 (priority 2020, published 2023)
# Like-named read-outs stand apart in the source and are kept apart here.
# Assays:
# [1] = tested on: Early Stage CoViD-19
# From the text: Subject 2, suffering early stage CoViD-19. Former professional sportsman (soccer), doesn't smoke, no alcohol, weight 75 kg. Pre-treatment history. […] Came to GP for treatment.
# Treatment for four consecutive days of four subcutaneous injections as described for patient 1. First day of treatment is set as ‘Day 1’.
# [2] = Method: In an particularly attractive embodiment, the phenol is injected subcutaneously, i.e. in the soft tissue below the skin with a depth of up to 0.5-2.0 cm.
# In another attractive embodiment, the phenol is administered intravenously.
# [3] = tested on: MRSA Lung Infection
# Method: Person, 88 kg, dyspnoea, cough, chest pain and fever, under urine catheter. Has used different antibiotic before and after operation prostate cancer and by lung infection.
# Phenol reduce to 0.02% 15 ml. duration 10 minutes for 5 more days.
# [4] = tested on: Flu Pneumonia; conditions: human, in vivo
# [5] = tested on: Virus Induced Pneumonia
# From the text: Subject 1 was a person, weight 85 kg, pre-condition asthma. […] Pre-treatment history:
# Self-treatment with Ventolin and paracetamol. […] Sixth day. […] Patient thinks that the problem is serious, and contacts GP.
# Treatment started for 9 consecutive days by four subcutaneous injections of a 0.06 w/w % phenol in physiological saline daily administered in: 1 and 2) the posterior margin of the sternocleidomastoid muscle on the level of the larynx knot at both left and right side of the body, each about 1 cm deep; 3) the middle of the upper socket of the sternum about 0.5 cm deep, and 4) the depression below the spinous process of the 7th cervical vertebra, about 0.5 cm deep. First day of treatment is set as ‘Day 1’
# [6] = tested on: Critical Stage Covid-19
# Method: Treated with concentration phenol 0.01% in 60 ml, drip infusion 20 minutes, once daily.
# Day 6 lowered dose to 0.01% concentration in 30 ml. Stopped treatment after treatment day 9.
# [7] = insulin comprising 0.2 to 1.0 mg per dose phenol as preservative; cited from earlier work
# [8] = Day 1 (first day of treatment), four s.c. injections 0.06 w/w % phenol daily
# [9] = at end of treatment (3 days normal body temperature), phenol 0.01% drip infusion once daily
# [10] = day1, phenol 0.02% (in 30 ml), drip 15 minutes
# [11] = day2, phenol 0.02% (in 30 ml), drip 15 minutes
# [12] = day3, phenol 0.02% (in 30 ml), drip 15 minutes
# [13] = day4, phenol 0.02% (in 30 ml), drip 15 minutes
# [14] = day5, phenol 0.02% (in 30 ml), drip 15 minutes
# [15] = day6, phenol 0.02% (in 15 ml), drip 10 minutes
# [16] = day7, phenol 0.02% (in 15 ml), drip 10 minutes
# [17] = day8, phenol 0.02% (in 15 ml), drip 10 minutes
# [18] = day9, phenol 0.02% (in 15 ml), drip 10 minutes
compound,measurement,setting,value
Oc1ccccc1 [phenol],Temperature,[1]; [8],38.4 °C
same,Temperature,[1]; Day 2,37.2 °C
same,Temperature,[1]; Day 3,36.8 °C
same,Temperature,[1]; Day 4,normal
same,Temperature,[1]; Day 5,normal
same,Duration of slight headache after treatment,[1]; after first treatment,about four
same,Time the slight cough remained,"[1]; counted from Day 5, then fully gone",5 days
same,Side effects,[1]; four consecutive days of s.c. injections,No other side effects noted
same,Injection location reaction,[1]; s.c. injection,slight pain at injection
same,Duration of immediate effect,[2]; intravenous administration,7 to 14 days
same,Time phenol may remain in the body,[2]; intravenous administration,about 24 hours
same,Duration of immediate effect,[2]; subcutaneous injection,about 7 days
same,Time phenol may remain in the body,[2]; subcutaneous injection,about 24 hours
same,X-lung: pneumonia,[3]; Day 18th,almost recovered
same,"Fever (temperature), reduced from 38.0",[3]; after 0.02% phenol 30 ml infusion once per day for 3 days,37.4 °C
same,Temperature,"[3]; during 0.02% phenol 15 ml, 10 minutes, for 5 more days",under 37 °C
same,Breathing,[4],breaths quietly
same,Patient outcome,[4],physical recovered with some cough
same,X-lung infiltrate,[4],much improved
same,Fever (temperature),[4]; iv,36.8-37.5 °C
same,Heartbeat,[4]; iv,about 90 per minute
same,Side effects after injection,[5]; 9 consecutive days of s.c. injections,"slight headache, no other side effect after injection"
same,Temperature,[5]; [8],38.1 °C
same,Short breath,[5]; Day 2,Limited feeling of short breath and asthma
same,Temperature,"[5]; Day 2, four s.c. injections 0.06 w/w % phenol daily",37.6 °C
same,Short breath,[5]; Day 3,Less short breath
same,Temperature,[5]; Day 3,37.4 °C
same,Short breath,[5]; Day 4,Short breath much better
same,Temperature,[5]; Day 4,37.4 °C
same,Short breath,[5]; Day 5,Short breath slightly better
same,Temperature,[5]; Day 5,37.4 °C
same,Short breath,[5]; Day 6,No more short breath
same,Temperature,[5]; Day 6,37.0 °C
same,Breathing,[5]; Day 7,Breathing normal
same,Fever,[5]; Day 7,No fever
same,Fever,[5]; Day 8,No fever
same,R/R,[6]; [9],20
same,SPO2,[6]; [9],97%
same,R/R,[6]; [10],41
same,SpO2,[6]; [10],91%
same,body temperature,[6]; [10],37.6 °C
same,R/R,[6]; [11],32
same,SpO2,[6]; [11],93%
same,body temperature,[6]; [11],38.6 °C
same,R/R,[6]; [12],27
same,SpO2,[6]; [12],94%
same,body temperature,[6]; [12],38.5 °C
same,R/R,[6]; [13],23
same,SpO2,[6]; [13],96%
same,body temperature,[6]; [13],38.0 °C
same,R/R,[6]; [14],22
same,SpO2,[6]; [14],96%
same,body temperature,[6]; [14],37.4 °C
same,day 6 evaluation: breathing,[6]; day 6,"day 6 evaluation patient breaths normally, still stress, coughing, feels good, day 6 started walking (with infusion)"
same,"temperature, R/R, SpO2",[6]; day 6,normal
same,R/R,[6]; [15],20
same,SpO2,[6]; [15],97%
same,body temperature,[6]; [15],37.0 °C
same,R/R,[6]; [16],20
same,SpO2,[6]; [16],97%
same,body temperature,[6]; [16],36.8 °C
same,R/R,[6]; [17],20
same,SpO2,[6]; [17],97%
same,body temperature,[6]; [17],36.9 °C
same,day 9 evaluation: body temperature,[6]; day 9,day 9 evaluation patients three days normal body temperature.
same,R/R,[6]; [18],18
same,SpO2,[6]; [18],97%
same,body temperature,[6]; [18],36.8 °C
same,Time after start of treatment at which improvement of R/R and SpO2 was measured,[6]; drip infusion once daily,6 h
same,Accumulation of phenol in the body by daily use,[7],no significant accumulation
